From US11479587B2, “Cationic intrinsically disordered antimicrobial peptides” (priority 2016, dated 2022)
In brackets after ≈: the same amount, converted by molar mass. Several values for one entry are separate records, joined by “and”; a condition that tells them apart may be missing. Identical values can stand only once. Residues, ends and D or L forms follow the SMILES beside them.

Tests used:
[1] = tested on: P. aeruginosa ATCC 10145; test: CFU-assay, P. aeruginosa-cidal activity; assay type: cell-based, Pseudomonas aeruginosa
[2] = tested on: S. aureus ATCC 6538; test: CFU-assay, S. aureus-cidal activity; assay type: cell-based, Staphylococcus aureus
Summary of the method: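 Bactericidal CFU-assay in nutrient-deficient 10 mM sodium phosphate buffer pH 5.5 with 0.25% glucose, counting surviving colonies across twofold peptide dilutions from 300 μg/ml to 19 ng/ml. Output is minimal bactericidal concentration (e.g. MBC90, MBC100); some peptides also tested at pH 7.0.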

[3] = tested on: Streptococcus pneumoniae ATCC 33400; test: CFU-assay, antimicrobial activity spectrum; assay type: cell-based; settings: pH 7.3, 0.25% glucose
[4] = tested on: Streptococcus pyogenes ATCC 12344; test: CFU-assay, antimicrobial activity spectrum; assay type: cell-based
[5] = tested on: Escherichia coli ATCC11775; test: CFU-assay, antimicrobial activity spectrum; assay type: cell-based
[6] = tested on: Burkholderia cepacia ATCC 25416; test: CFU-assay, Burkholderia cepacia-cidal activity; assay type: cell-based
[7] = tested on: Staphylococcus epidermidis ATCC 14990; test: CFU-assay, antimicrobial activity spectrum; assay type: cell-based; settings: pH 5.5, 0.25% glucose
[8] = tested on: Klebsiella pneumoniae ATCC 13883; test: CFU-assay, Klebsiella pneumoniae-cidal activity; assay type: cell-based
[9] = tested on: Salmonella typhimurium ATCC 13311; test: CFU-assay, antimicrobial activity spectrum; assay type: cell-based
[10] = tested on: methicillin-resistant S. aureus strain (ATCC 43300); assay type: cell-based, Staphylococcus aureus; settings: ATCC 43300, 18 h
[11] = Cytotoxicity (resazurin) assay
Summary of the method: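 CC50 values were derived by fitting concentration-dependent percentage cytotoxicity to a dose–response function. The read-out was resazurin fluorescence (ex 560, em 590 nm; 100 μM, 3 h) after 20 h compound treatment of HEK293 cells at 37 °C in DMEM with 10% FBS.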

[12] = Hemolysis assay; assay type: cell-based; settings: for HC50 at 1 h: human, washed erythrocytes from EDTA-blood, pH 7.4
Summary of the method: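 Washed EDTA-blood erythrocytes in 5% PBS, pH 7.4, were rotated 1 h at 37° C with peptides at 0, 3, 10, 30, 60 μm. Hemoglobin release read at 540 nm as % of 0.1% Triton X-100 hemolysis; CC50 from dose-response curve of triplicates.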

[13] = tested on: C. albicans ATCC 928; settings: for MIC, C. albicans ATCC 90028: ATCC 928; for MIC: ATCC 928, 18 h, pH 7.4
[14] = tested on: C. neoformans
[15] = tested on: multidrug-resistant K. pneumoniae ATCC 700603; assay type: cell-based, Klebsiella pneumoniae
Protocol: The Gram-negative opportunistic pathogen K. pneumoniae is responsible for a spectrum of community-acquired and nosocomial infections and typically infects patients with indwelling medical devices, on which this microorganism is able to grow as a biofilm.
A sample of each culture was then diluted 40-fold in fresh broth and incubated at 37° C. for 1.5-3 h. […] All the plates were covered and incubated at 37° C. for 18 h.
(§1) Inhibition of bacterial growth was determined using resazurin as a marker for cell viability. Resazurin was added to each well, at 0.001% final concentration, and plates incubated at 37° C. for 2 h. Fluorescence intensity was measured, using F (top read), ex 560/10 nm, em 590/10 nm, using a Tecan M1000 Pro monochromator plate reader.

[16] = tested on: A. baumannii ATCC 19606; assay type: cell-based, Acinetobacter baumannii; settings: ATCC 19606, 2 h
Protocol: as §1

[17] = tested on: E. coli ATCC 25922; assay type: cell-based, Escherichia coli; settings: ATCC 25922, 2 h
Protocol: as §1

[18] = tested on: P. aeruginosa ATCC 27853; assay type: cell-based, Pseudomonas aeruginosa; settings: ATCC 27853, 2 h
Protocol: as §1

[19] = tested on: E. coli ribosomal proteins; test: Immunodotblot binding to HPLC-separated ribosomal proteins; settings: 10 μg/ml, 4° C. overnight, dot blot
Description: The question whether CIDAMP-dependent morphological changes in bacteria are direct or indirect was addressed by testing the hypothesis that CIDAMPs directly bind to ribosomes and ribosomal proteins. For this purpose, ribosomes of E. coli were separated and partially purified by SulfoLink®-coupling resin-chromatography (Maguire et al., 2008, RNA, 14, 188-195) followed by reversed phase high performance liquid chromatography (HPLC) using an Aeris 3.6 μm C18 widepore RP-HPLC column (Phenomenex) and an increasing gradient of acetonitrile (ACN, max.: 80% v/v) in aqueous 0.1% trifluoroacetic acid.
Aliquots of each HPLC fraction were lyophilized, the residues dissolved in 5 μl water each and then applied to a nitrocellulose membrane. After blocking with 5% bovine serum albumin in PBS and washing with PBS, biotinylated rhHRNR2591-2694, a 103 amino acid fragment of hornerin, (10 μg/ml) was added and incubated at 4° C. overnight. After 4-times washing, Strep-Tactin® (1:200; iba lifescience) in PBS was added, incubated for 1 h and then, after 6 times washing with PBS, substrate was added and the blots developed.

[20] = standard conditions at pH 7.4, activity at concentration <32 pg/ml

## CCCCCCCCCCCCCCCC(=O)N[C@@H](CO)C(=O)N[C@@H](Cc1c[nH]cn1)C(=O)N[C@@H](Cc1c[nH]cn1)C(=O)N[C@@H](CCCNC(=N)N)C(=O)N[C@@H](CS)C(=O)N[C@@H](CS)C(=O)N[C@@H](CCCNC(=N)N)C(=O)N[C@@H](CO)C(=O)N[C@@H](Cc1c[nH]cn1)C(=O)N[C@@H](CCCNC(=N)N)C(=O)N[C@@H](CS)C(=O)N[C@@H](CCCNC(=N)N)C(=O)N[C@@H](CCCNC(=N)N)C(=O)O [Pal-LCE3B56-68] (HELM PEPTIDE1{[CCCCCCCCCCCCCCCC(=O)[*:2]].S.H.H.R.C.C.R.S.H.R.C.R.R}$$$$V2.0)
[1]; pH 5.5
  P. aeruginosa MBC90: 0.088 µM
  P. aeruginosa MBC100: 0.176 µM
[1]; pH 5.5, 0.25% glucose
  MBC90: 0.075 µg/mL (≈ 0.0388 µM)
  MBC100: 0.3 µg/mL (≈ 0.155 µM)
[2]; pH 5.5
  S. aureus MBC90: 0.011 µM
  S. aureus MBC100: 0.078 µM
[2]; pH 5.5, 0.25% glucose
  MBC90: <0.019 µg/mL
  MBC100: 0.15 µg/mL (≈ 0.0776 µM)
[3]
  MBC90: 0.59 µg/mL (≈ 0.305 µM)
  MBC100: 2.35 µg/mL (≈ 1.22 µM)
[4]; pH 6.0, 0.25% glucose
  MBC90: 0.15 µg/mL (≈ 0.0776 µM)
  MBC100: 0.59 µg/mL (≈ 0.305 µM)
[4]; pH 7.3, 0.25% glucose
  MBC90: 0.15 µg/mL (≈ 0.0776 µM)
  MBC100: 0.3 µg/mL (≈ 0.155 µM)
[5]; pH 5.5, 0.25% glucose
  MBC90: 0.3 µg/mL (≈ 0.155 µM)
[5]; pH 7.3, 0.25% glucose
  MBC90: 0.59 µg/mL (≈ 0.305 µM)
  MBC100: 1.18 µg/mL (≈ 0.611 µM)
[6]; pH 5.5, 0.25% glucose
  MBC90: >300 µg/mL
  MBC100: >300 µg/mL
[6]; pH 7.3
  MB100: 4.9 µM
  MBC90: 2.4 µM
[6]; pH 7.3, 0.25% glucose
  MBC90: 4.7 µg/mL
  MBC100: 9.38 µg/mL (≈ 4.85 µM)
[6]; pH 7.3, 0.25% glucose, listed as palmitoyl-LCE3B56-68
  MBC100: 9.375 µg/mL (≈ 4.85 µM)
[7]
  MBC90: 0.3 µg/mL (≈ 0.155 µM)
  MBC100: 0.3 µg/mL (≈ 0.155 µM)
[8]; pH 5.5
  MBC90: 52 nM
  MBC100: 4.9 µM
[8]; pH 5.5, 0.25% glucose
  MBC90: 0.15 µg/mL
  MBC100: 9.375 µg/mL
[8]; pH 7.3, 0.25% glucose
  MBC90: 2.35 µg/mL
  MBC100: 4.7 µg/mL
[9]; pH 5.5
  MBC90: 20 nM
  MBC100: 155 nM
[9]; pH 5.5, 0.25% glucose
  MBC90: 0.038 µg/mL
  MBC100: 0.3 µg/mL
[9]; pH 7.3, 0.25% glucose
  MBC90: 1.18 µg/mL
  MBC100: 2.35 µg/mL
[10]
  MIC, S. aureus ATCC 43300: ≥16 µg/mL
[11]
  CC50: > 32 µg/mL and > 16.6 µM
[12]
  CC50: > 100 µg/mL
  HC50 at 1 h: > 78 µM
[13]
  MIC, C. albicans ATCC 90028: ≥1 µg/mL
  MIC: 1 to 32 µg/mL
[13]; [20]
  Antifungal activity, C. albcans ATCC90028: A (A-active)
[14]
  MIC, C. neoformans ATCC 208821: ≥0.25 µg/mL
[14]; [20]
  Antifungal activity, C. neoformans ATCC 208821: A (A-active)

## CCCCCCCCCCCCCCCC(=O)NCC(=O)N[C@H](CCCNC(=N)N)C(=O)N[C@H](CCCNC(=N)N)C(=O)NCC(=O)NCC(=O)N[C@H](CCCNC(=N)N)C(=O)NCC(=O)NCC(=O)N[C@H](CCCNC(=N)N)C(=O)NCC(=O)N[C@H](CCCNC(=N)N)C(=O)NCC(=O)N[C@H](CCCNC(=N)N)C(=O)O [D-Pal-GR13] (HELM PEPTIDE1{[CCCCCCCCCCCCCCCC(=O)[*:2]].G.[dR].[dR].G.G.[dR].G.G.[dR].G.[dR].G.[dR]}$$$$V2.0)
[10]
  MIC, S. aureus ATCC 43300: ≥2 µg/mL
[15]
  MIC, K. pneumoniae ATCC 700603: ≥32 µg/mL
[11]
  CC50: > 32 µg/mL and > 20.1 µM
[12]
  HC50: 65 µg/mL
  HC50 at 1 h: 24.5 µM
[16]
  MIC, A. baumannii ATCC 19606: ≥8 µg/mL
[17]
  MIC, E. coli ATCC 25922: ≥8 µg/mL
[18]
  MIC, P. aeruginosa ATCC 27853: ≥16 µg/mL
[13]
  MIC, C. albicans ATCC 90028: ≥8 µg/mL
[14]
  MIC, C. neoformans ATCC 208821: ≥2 µg/mL

## CCCCCCCCCCCCCCCC(=O)NCC(=O)N[C@@H](CCCNC(=N)N)C(=O)N[C@@H](CCCNC(=N)N)C(=O)NCC(=O)NCC(=O)N[C@@H](CCCNC(=N)N)C(=O)NCC(=O)NCC(=O)N[C@@H](CCCNC(=N)N)C(=O)NCC(=O)N[C@@H](CCCNC(=N)N)C(=O)NCC(=O)N[C@@H](CCCNC(=N)N)C(=O)O [Pal-GR13] (HELM PEPTIDE1{[CCCCCCCCCCCCCCCC(=O)[*:2]].G.R.R.G.G.R.G.G.R.G.R.G.R}$$$$V2.0)
[10]
  MIC, S. aureus ATCC 43300: ≥0.25 µg/mL
[15]
  MIC, K. pneumoniae ATCC 700603: ≥16 µg/mL
[11]
  CC50: > 32 µg/mL and > 20.1 µM
[12]
  HC50: 100 µg/mL
  HC50 at 1 h: 62 µM
[16]
  MIC, A. baumannii ATCC 19606: ≥2 µg/mL
[17]
  MIC, E. coli ATCC 25922: ≥4 µg/mL
[18]
  MIC, P. aeruginosa ATCC 27853: ≥8 µg/mL
[13]
  MIC, C. albicans ATCC 90028: ≥4 µg/mL
  MIC: 1 to 32 µg/mL
[14]
  MIC, C. neoformans ATCC 208821: ≥0.25 µg/mL

B1: biotinylated rhHRNR2591-2694: biotinylated rhHRNR2591-2694, a 103 amino acid fragment of hornerin (protein)
chain: SQHGSGSGHSSGYGQHGSRSGQSSRGERHGSSSGSSSHYGQHGSGSRQSSGHGRQGSGSGQSPSRGRHGSGLGHSSSHGQHGSGSGRSSSRGPYESRLGHSSVF
modifications: biotinylated (position not given)
notes: biotinylated rhHRNR2591-2694, a 103 amino acid fragment of hornerin
[19]
  binding to ribosomal proteins (in words): specific binding
